Data taken from the supplement of paper PMC10307832.

Legend:
Assay in all cases: relative viability (nuclei count vs DMSO), 5 days (fraction); higher = more cells survive
NCI-H596 = system: NCI-H596
Method in brief: (§1)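 Cells from lung cancer lines were seeded into 1536-well plates and, one day later, dosed by pin tool. Treatments were either a single drug or a fixed dose of an anchor drug with five library-drug doses (not always all listed) in √10 steps. After 5 days, nuclei were stained in a one-step fixation (final 0.05% Triton X-100, 1% formaldehyde, 1 ug/ml Hoechst) and counted on 4× images, and relative viability is the treated-to-vehicle nuclei ratio, as the median of duplicate plates.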

PC-14 = system: PC-14
Method in brief: as §1

NCI-H1355 = system: NCI-H1355
Method in brief: as §1

NCI-H1792 = system: NCI-H1792
Method in brief: as §1

NCI-H727 = system: NCI-H727
Method in brief: as §1

RERF-LC-KJ = system: RERF-LC-KJ
Method in brief: as §1

NCI-H520 = system: NCI-H520
Method in brief: as §1

NCI-H460 = system: NCI-H460
Method in brief: as §1

NCI-H2347 = system: NCI-H2347
Method in brief: as §1

NCI-H441 = system: NCI-H441
Method in brief: as §1

LXF-289 = system: LXF-289
Method in brief: as §1

SK-MES-1 = system: SK-MES-1
Method in brief: as §1

NCI-H322M = system: NCI-H322M
Method in brief: as §1

NCI-H1755 = system: NCI-H1755
Method in brief: as §1

NCI-H650 = system: NCI-H650
Method in brief: as §1

NCI-H1651 = system: NCI-H1651
Method in brief: as §1

NCI-H661 = system: NCI-H661
Method in brief: as §1

LCLC-103H = system: LCLC-103H
Method in brief: as §1

NCI-H1563 = system: NCI-H1563
Method in brief: as §1

NCI-H3122 = system: NCI-H3122
Method in brief: as §1

NCI-H1915 = system: NCI-H1915
Method in brief: as §1

Work on `O=C(O)c1ccc(-c2c[nH]c3ncc(-c4ccccc4)cc23)cc1C1CCCC1` + C[C@]1(O)C[C@@H](c2nc(-c3ccc4ccc(-c5ccccc5)nc4c3)c3c(N)nccn32)C1 [Linsitinib] (partner 1 µM) yielded a relative viability (NCI-H596; first compound 0.04 µM) of 0.974, a relative viability (NCI-H596; first compound 0.1265 µM) of 1.05 and a relative viability (NCI-H596; first compound 0.4 µM) of 1.19. For the same compound, the relative viability (NCI-H596; first compound 1.265 µM) was 1.03, the relative viability (PC-14; first compound 0.04 µM) was 0.937 and the relative viability (PC-14; first compound 0.1265 µM) was 0.947. It also gave a relative viability (PC-14; first compound 0.4 µM) of 1.01, a relative viability (PC-14; first compound 1.265 µM) of 0.798 and a relative viability (NCI-H1355; first compound 0.04 µM) of 0.848. It also gave a relative viability (NCI-H1355; first compound 0.1265 µM) of 0.79, a relative viability (NCI-H1355; first compound 0.4 µM) of 0.887 and a relative viability (NCI-H1355; first compound 1.265 µM) of 0.633. The relative viability (NCI-H1792; first compound 0.04 µM) was 0.577, the relative viability (NCI-H1792; first compound 0.1265 µM) was 0.727 and the relative viability (NCI-H1792; first compound 0.4 µM) was 0.56. For the same compound, the relative viability (NCI-H1792; first compound 1.265 µM) was 0.558, the relative viability (NCI-H727; first compound 0.04 µM) was 0.381 and the relative viability (NCI-H727; first compound 0.1265 µM) was 0.361. It also gave a relative viability (NCI-H727; first compound 0.4 µM) of 0.243, a relative viability (NCI-H727; first compound 1.265 µM) of 0.294 and a relative viability (RERF-LC-KJ; first compound 0.04 µM) of 0.86. It also gave a relative viability (RERF-LC-KJ; first compound 0.1265 µM) of 0.862, a relative viability (RERF-LC-KJ; first compound 0.4 µM) of 0.906 and a relative viability (RERF-LC-KJ; first compound 1.265 µM) of 0.807. For the same compound, the relative viability (NCI-H520; first compound 0.04 µM) was 0.833, the relative viability (NCI-H520; first compound 0.1265 µM) was 1.13 and the relative viability (NCI-H520; first compound 0.4 µM) was 0.904. It also gave a relative viability (NCI-H520; first compound 1.265 µM) of 0.712, a relative viability (NCI-H460; first compound 0.04 µM) of 0.783 and a relative viability (NCI-H460; first compound 0.1265 µM) of 0.989. For the same compound, the relative viability (NCI-H460; first compound 0.4 µM) was 0.753, the relative viability (NCI-H460; first compound 1.265 µM) was 0.662 and the relative viability (NCI-H2347; first compound 0.04 µM) was 0.975. For the same compound, the relative viability (NCI-H2347; first compound 0.1265 µM) was 1.11, the relative viability (NCI-H2347; first compound 0.4 µM) was 0.927 and the relative viability (NCI-H2347; first compound 1.265 µM) was 0.67. The relative viability (NCI-H441; first compound 0.04 µM) was 0.666, the relative viability (NCI-H441; first compound 0.1265 µM) was 0.674 and the relative viability (NCI-H441; first compound 0.4 µM) was 0.563. For the same compound, the relative viability (NCI-H441; first compound 1.265 µM) was 0.531, the relative viability (LXF-289; first compound 0.04 µM) was 0.94 and the relative viability (LXF-289; first compound 0.1265 µM) was 0.937. It also gave a relative viability (LXF-289; first compound 0.4 µM) of 0.706, a relative viability (LXF-289; first compound 1.265 µM) of 0.322 and a relative viability (SK-MES-1; first compound 0.04 µM) of 1.18. The relative viability (SK-MES-1; first compound 0.1265 µM) was 1.09, the relative viability (SK-MES-1; first compound 0.4 µM) was 0.997 and the relative viability (SK-MES-1; first compound 1.265 µM) was 0.749. For the same compound, the relative viability (NCI-H322M; first compound 0.04 µM) was 0.913, the relative viability (NCI-H322M; first compound 0.1265 µM) was 0.911 and the relative viability (NCI-H322M; first compound 0.4 µM) was 0.92. For the same compound, the relative viability (NCI-H322M; first compound 1.265 µM) was 0.791, the relative viability (NCI-H1755; first compound 0.04 µM) was 0.96 and the relative viability (NCI-H1755; first compound 0.1265 µM) was 1.01. For the same compound, the relative viability (NCI-H1755; first compound 0.4 µM) was 1.02, the relative viability (NCI-H1755; first compound 1.265 µM) was 0.961 and the relative viability (NCI-H650; first compound 0.04 µM) was 0.844. The relative viability (NCI-H650; first compound 0.1265 µM) was 1.04, the relative viability (NCI-H650; first compound 0.4 µM) was 0.861 and the relative viability (NCI-H650; first compound 1.265 µM) was 0.679. The relative viability (NCI-H1651; first compound 0.04 µM) was 0.997, the relative viability (NCI-H1651; first compound 0.1265 µM) was 0.968 and the relative viability (NCI-H1651; first compound 0.4 µM) was 0.912. For the same compound, the relative viability (NCI-H1651; first compound 1.265 µM) was 0.781, the relative viability (NCI-H661; first compound 0.04 µM) was 0.576 and the relative viability (NCI-H661; first compound 0.1265 µM) was 0.603. The relative viability (NCI-H661; first compound 0.4 µM) was 0.572, the relative viability (NCI-H661; first compound 1.265 µM) was 0.736 and the relative viability (LCLC-103H; first compound 0.04 µM) was 1.04. For the same compound, the relative viability (LCLC-103H; first compound 0.1265 µM) was 1.04, the relative viability (LCLC-103H; first compound 0.4 µM) was 1.17 and the relative viability (LCLC-103H; first compound 1.265 µM) was 1.08. For the same compound, the relative viability (NCI-H1563; first compound 0.04 µM) was 1.22, the relative viability (NCI-H1563; first compound 0.1265 µM) was 1.17 and the relative viability (NCI-H1563; first compound 0.4 µM) was 1.19. It also gave a relative viability (NCI-H1563; first compound 1.265 µM) of 1.18, a relative viability (NCI-H3122; first compound 0.04 µM) of 0.966 and a relative viability (NCI-H3122; first compound 0.1265 µM) of 1.02. It also gave a relative viability (NCI-H3122; first compound 0.4 µM) of 0.942, a relative viability (NCI-H3122; first compound 1.265 µM) of 0.838 and a relative viability (NCI-H1915; first compound 0.04 µM) of 1.06. The relative viability (NCI-H1915; first compound 0.1265 µM) was 1.1, the relative viability (NCI-H1915; first compound 0.4 µM) was 0.946 and the relative viability (NCI-H1915; first compound 1.265 µM) was 0.799.
